Experiments:
[1] = system: human pancreatic cancer Mia PaCa-2 xenograft tumors; experiment: Antitumor activity in mice, Mia PaCa-2 xenograft; assay type: in vivo; conditions: Mia PaCa-2 xenograft in nude mice; for Anti-tumor effect (regression): 10 mg/kg, qd*21, intragastric; for in vivo activity compared with control drug B: 10 mg/kg/day, 21 days
Method: Human pancreatic cancer Mia PaCa-2 cells were cultured conventionally in 1640 medium containing 10% fetal bovine serum in a 37° C./5% CO2 incubator. After being subcultured, the cells were collected when they reached the desired amount. 1×10^7 Mia PaCa-2 cells were injected into the left dorsal side of each nude mouse, and the animals were randomly grouped for administration after tumors grew to 150 mm^3. The groups were as follows: 1) solvent control group, 8 mice; 2) compound 6 group, compound 14 group, compound 28 group, compound 44 group, compound 60 group, compound 103 group and control drug B (Example 35 in WO2018/143315), 8 mice in each group. The mice in the solvent control group was intragastrically administered with 0.5% CMC-Na once a day; and the mice in the compound groups were intragastrically administered with 0.5% CMC-Na suspension once a day. On Tuesday and Thursday each week, tumor volumes and body weight of the mice were measured, and the nude mice were sacrificed on day 21 during the treatment period.

pERK level in H358 cells = experiment: pERK and ERK protein content assay in H358 cells (ELISA); assay type: cell-based; conditions: Homo sapiens, NCI-H358, pERK/ERK ratio vs DMSO group, compound 1 μM, 24 h, read-out: Inhibition rate (%)
Summary of the method: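 H358 cells grown one day, then treated 24 h with compound at 1 μM. pERK and ERK in lysates measured by ELISA; pERK/ERK ratio expressed as percent inhibition versus DMSO.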

H358 cells = experiment: Antiproliferative activity against H358 cells (Cell Titer Glow, ultra-low attachment plate); assay type: cell-based; conditions: Homo sapiens, NCI-H358, 72 h, three days after addition of compound
Method: 2500 H358 cells were seeded in a 96-well ultra-low attachment plate (corning, 7007). After one day of growth, a serially diluted compound (a maximum concentration of 5 μM, 5-fold dilution, a total of five doses) was added. Three days after the addition of the compound, Cell Titer Glow (Promega, G9681) was added to evaluate pellet growth, and the IC50 value was calculated.

Row | IC50 (H358 cells) [nM] | Compound | Anti-tumor effect (regression) [1] [% regression] | in vivo activity compared with control drug B [1] | inhibition at 1 µM (pERK level in H358 cells) [%]
1 | < 300 | C=CC(=O)N1CC2(CCN(c3nc(N4CC(N5CC6(CC6)C5)C4)nc4c(OCC(F)(F)F)c(-c5c(C)ccc6[nH]ncc56)c(C5CC5)cc34)CC2)C1 [Compound 28] | 42 | stronger in vivo activity than the control drug B | > 90
2 | < 300 | C=CC(=O)N1CC2(CCN(c3nc(N4CC(C)(N5CCC5)C4)nc4c(OCC(F)(F)F)c(-c5c(C)ccc6[nH]ncc56)c(C5CC5)cc34)CC2)C1 [Compound 60] | 30 | stronger in vivo activity than the control drug B | > 90
3 | < 300 | C=CC(=O)N1CC2(CCN(c3nc(N4CC(CN5CCC5)C4)nc4c(OCC(F)(F)F)c(-c5c(C)ccc6[nH]ncc56)c(C5CC5)cc34)CC2)C1 [Compound 6] | 35 | stronger in vivo activity than the control drug B | > 90
4 | < 300 | C=CC(=O)N1CC2(CCN(c3nc(N4CC(N5CC(O)C5)C4)nc4c(OCC(F)(F)F)c(-c5c(C)ccc6[nH]ncc56)c(C5CC5)cc34)CC2)C1 [Compound 44] | 23 | – | > 90
5 | < 300 | C=CC(=O)N1CC2(CCN(c3nc(N4CC(OC5CN(C)C5)C4)nc4c(OCC(F)(F)F)c(-c5c(C)ccc6[nH]ncc56)c(C5CC5)cc34)CC2)C1 [Compound 14] | 37 | stronger in vivo activity than the control drug B | > 90
6 | < 300 | C=CC(=O)N1CC2(CCN(c3nc(N4CC(N5CC6(CC6)C5)C4)nc4c(OCC(F)(F)F)c(-c5c(F)ccc6[nH]ncc56)c(C5CC5)cc34)CC2)C1 [Compound 103] | 39 | stronger in vivo activity than the control drug B | > 90
7 | < 300 | C=CC(=O)N1CC2(CCN(c3nc(N4CC(N5CC6(CC6)C5)C4)nc4c(OCC(F)(F)F)c(-c5c(C)c(C)cc6[nH]ncc56)c(C5CC5)cc34)CC2)C1 [Compound 105] | – | – | > 90
8 | < 300 | C=CC(=O)N1CC2(CCN(c3nc(N4CC(N5CCC56CC6)C4)nc4c(OCC(F)(F)F)c(-c5c(C)ccc6[nH]ncc56)c(C5CC5)cc34)CC2)C1 [Compound 34] | – | – | > 90
9 | < 300 | C=CC(=O)N1CCC2(CC1)CN(c1nc(N3CC(N4CC5(CC5)C4)C3)nc3c(OCC(F)(F)F)c(-c4c(C)ccc5[nH]ncc45)c(C4CC4)cc13)C2 [Compound 102] | – | – | > 90
10 | < 300 | C=CC(=O)N1CC2(CCN(c3nc(N4CC(N5CC6(CN(C)C6)C5)C4)nc4c(OCC(F)(F)F)c(-c5c(C)ccc6[nH]ncc56)c(C5CC5)cc34)CC2)C1 [Compound 32] | – | – | > 90
11 | < 300 | C=CC(=O)N1CC2(CCN(c3nc(N4CCC5(CCN5C)C4)nc4c(OCC(F)(F)F)c(-c5c(C)ccc6[nH]ncc56)c(C5CC5)cc34)CC2)C1 (stereo not shown) [Compound 77] | – | – | > 90
12 | < 300 | C=CC(=O)N1CC2(CCN(c3nc(N4CC(CC#N)(N5CCC5)C4)nc4c(OCC(F)(F)F)c(-c5c(C)ccc6[nH]ncc56)c(C5CC5)cc34)CC2)C1 [Compound 54] | – | – | > 90
13 | < 300 | C=CC(=O)N1CC2(CCN(c3nc(N4CCC(OC5CN(C)C5)CC4)nc4c(OCC(F)(F)F)c(-c5c(C)ccc6[nH]ncc56)c(C5CC5)cc34)CC2)C1 [Compound 16] | – | – | > 90
14 | < 300 | C=CC(=O)N1CC2(CCN(c3nc(N4CC(N5CC6(CC6)C5)C4)nc4c(OCC(F)(F)F)c(-c5c(F)ccc6cn[nH]c56)c(C5CC5)cc34)CC2)C1 [Compound 110] | – | – | > 90
15 | < 300 | C=CC(=O)N1CC2(CCN(c3nc(N4CC(C)(CN5CCCC5)C4)nc4c(OCC(F)(F)F)c(-c5c(C)ccc6[nH]ncc56)c(C5CC5)cc34)CC2)C1 [Compound 64] | – | – | > 90
16 | < 300 | C=CC(=O)N1CC2(CCN(c3nc(N4CC(C)(N5CCCC5)C4)nc4c(OCC(F)(F)F)c(-c5c(C)ccc6[nH]ncc56)c(C5CC5)cc34)CC2)C1 [Compound 61] | – | – | > 90
17 | < 300 | C=CC(=O)N1CC2(CCN(c3nc(N4CC5(CC(O)CN5CC)C4)nc4c(OCC(F)(F)F)c(-c5c(C)ccc6[nH]ncc56)c(C5CC5)cc34)CC2)C1 (stereo not shown) [Compound 122] | – | – | > 90
18 | > 1000 | C=CC(=O)N1CC2(CCN(c3nc(N4CC(N5CC=CCC5)C4)nc4c(OCC(F)(F)F)c(-c5c(C)ccc6[nH]ncc56)c(C5CC5)cc34)CC2)C1 [Compound 43] | – | – | 50 to 90
19 | < 300 | C=CC(=O)N1CC2(CCN(c3nc(N4CC(N(CC)CCO)C4)nc4c(OCC(F)(F)F)c(-c5c(C)ccc6[nH]ncc56)c(C5CC5)cc34)CC2)C1 [Compound 22] | – | – | > 90
